Reference: ChEMBL document CHEMBL4406832, “Discovery of novel series of 2-substituted benzo[d]oxazol-5-amine derivatives as multi-target directed ligands for the treatment of Alzheimer's disease” (Eur J Med Chem, 2019)
Activity calls are given as the source filed them. No cut-off for these calls is given here.

Tests used:
Acetylcholinesterase = Acetylcholinesterase (Electrophorus electricus, UniProt O42275); experiment: Inhibition of electric eel AChE using acetylthiocholine iodide as substrate preincubated with enzyme for 30 mins followed by substrate addition and measured for 1 min by DTNB reagent-based spectrophotometric analysis
Sequence of Acetylcholinesterase (O42275 whole entry): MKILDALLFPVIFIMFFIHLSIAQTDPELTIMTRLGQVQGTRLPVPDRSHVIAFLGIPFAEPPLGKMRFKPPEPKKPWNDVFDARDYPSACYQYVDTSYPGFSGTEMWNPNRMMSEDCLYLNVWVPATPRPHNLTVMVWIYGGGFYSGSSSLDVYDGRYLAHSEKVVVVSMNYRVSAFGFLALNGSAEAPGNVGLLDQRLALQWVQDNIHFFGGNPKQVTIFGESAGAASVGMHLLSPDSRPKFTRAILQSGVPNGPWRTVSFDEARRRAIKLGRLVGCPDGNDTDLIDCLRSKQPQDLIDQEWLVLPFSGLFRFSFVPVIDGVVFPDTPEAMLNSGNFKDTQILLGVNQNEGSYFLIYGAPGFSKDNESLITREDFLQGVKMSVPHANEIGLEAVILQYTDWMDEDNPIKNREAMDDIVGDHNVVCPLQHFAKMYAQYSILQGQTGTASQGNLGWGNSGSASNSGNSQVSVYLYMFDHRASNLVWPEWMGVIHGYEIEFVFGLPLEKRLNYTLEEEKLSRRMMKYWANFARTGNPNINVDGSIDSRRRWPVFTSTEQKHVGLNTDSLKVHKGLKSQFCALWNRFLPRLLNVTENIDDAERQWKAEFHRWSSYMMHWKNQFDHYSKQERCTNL

[1] = Permeability of the compound in pH 7.4 PBS buffer incubated for 18 hrs by PAMPA-BBB assay
[2] = Selectivity index, ratio of IC50 for equine serum BuChE to IC50 for electric eel AChE
Cholinesterase = Cholinesterase (Equus caballus, UniProt P81908); experiment: Inhibition of equine serum BuChE using butyrylthiocholine iodide as substrate preincubated for 30 mins followed by substrate addition and measured for 1 min by DTNB reagent-based spectrophotometric analysis
Sequence of Cholinesterase (P81908 whole entry): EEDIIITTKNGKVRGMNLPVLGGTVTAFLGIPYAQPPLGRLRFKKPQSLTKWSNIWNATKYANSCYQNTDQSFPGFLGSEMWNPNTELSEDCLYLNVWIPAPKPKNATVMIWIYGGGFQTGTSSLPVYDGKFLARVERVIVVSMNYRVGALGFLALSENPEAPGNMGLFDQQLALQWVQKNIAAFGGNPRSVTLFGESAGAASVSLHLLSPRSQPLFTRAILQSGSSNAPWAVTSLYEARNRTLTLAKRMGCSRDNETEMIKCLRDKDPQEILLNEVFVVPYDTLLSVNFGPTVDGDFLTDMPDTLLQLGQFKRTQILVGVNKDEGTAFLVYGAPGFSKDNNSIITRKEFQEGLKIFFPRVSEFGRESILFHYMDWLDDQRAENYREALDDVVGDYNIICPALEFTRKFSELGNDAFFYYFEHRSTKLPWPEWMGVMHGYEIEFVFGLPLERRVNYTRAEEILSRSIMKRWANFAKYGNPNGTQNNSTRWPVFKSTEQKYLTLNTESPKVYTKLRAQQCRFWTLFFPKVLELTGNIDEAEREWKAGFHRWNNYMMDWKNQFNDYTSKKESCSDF

[3] = target: Amyloid-beta precursor protein (Homo sapiens, UniProt P05067); experiment: Displacement of [125I]IMPY from human amyloid beta(1-42) aggregates incubated for 3 hrs by gamma counting analysis
Sequence of Amyloid-beta precursor protein (P05067 whole entry, the tested form may be a part): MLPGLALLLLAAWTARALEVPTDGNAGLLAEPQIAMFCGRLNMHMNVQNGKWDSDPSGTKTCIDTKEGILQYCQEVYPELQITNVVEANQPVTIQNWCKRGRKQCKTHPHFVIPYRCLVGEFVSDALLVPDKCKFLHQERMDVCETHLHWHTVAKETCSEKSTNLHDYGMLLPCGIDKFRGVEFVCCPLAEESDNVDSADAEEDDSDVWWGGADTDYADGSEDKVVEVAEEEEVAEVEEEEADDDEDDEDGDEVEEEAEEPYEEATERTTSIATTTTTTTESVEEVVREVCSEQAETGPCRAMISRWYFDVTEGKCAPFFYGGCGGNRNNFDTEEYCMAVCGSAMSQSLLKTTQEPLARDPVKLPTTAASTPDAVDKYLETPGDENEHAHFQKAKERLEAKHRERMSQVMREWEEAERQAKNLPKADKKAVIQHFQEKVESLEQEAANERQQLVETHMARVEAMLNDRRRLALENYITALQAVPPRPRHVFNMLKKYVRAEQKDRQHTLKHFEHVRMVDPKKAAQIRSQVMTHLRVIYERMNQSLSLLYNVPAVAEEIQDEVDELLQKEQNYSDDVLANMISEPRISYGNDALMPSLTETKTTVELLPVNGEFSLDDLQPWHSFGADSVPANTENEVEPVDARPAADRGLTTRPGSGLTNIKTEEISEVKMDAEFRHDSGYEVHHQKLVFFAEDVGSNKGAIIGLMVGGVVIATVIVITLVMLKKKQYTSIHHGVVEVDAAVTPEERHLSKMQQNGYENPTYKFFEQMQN

Rattus norvegicus [4] = experiment: (§1) Improvement in learning and spatial memory in icv infused amyloid beta (1 to 42)-induced Wistar rat model of Alzheimer's disease assessed as reduction in degeneration of neuron in hippocampal region at 5 mg/kg, po administered daily for 7 days starting from 7 days post surgery and measured after 6 days by H and E staining-based microscopic analysis; assay type: functional, organism-based
Rattus norvegicus [5] = experiment: Cognitive enhancing effect in scopolamine-induced Wistar rat model of amnesia assessed as increase in spontaneous alteration at 5 mg/kg pretreated for 7 days followed by scopolamine challenge and measured after 30 mins by Y-maze test; assay type: functional, organism-based
Rattus norvegicus [6] = experiment: (§2) Improvement in learning and spatial memory in icv infused amyloid beta (1 to 42)-induced Wistar rat model of Alzheimer's disease assessed as reduction in escape latency at 5 mg/kg, po administered daily for 7 days starting from 7 days post surgery and measured daily for 5 days by Morris water maze test; assay type: functional, organism-based
SH-SY5Y = experiment: Neuroprotective activity against amyloid beta (1 to 42)-induced cytotoxicity in human SH-SY5Y cells assessed as increase in cell viability at 10 to 20 uM measured after 72 hrs by MTT assay; assay type: functional, cell-based
Rattus norvegicus [7] = experiment: as §1, with “disordered” for “degeneration of”; assay type: functional, organism-based
Rattus norvegicus [8] = experiment: as §2, with “increase” for “reduction”, “time spent in platform zone” for “escape latency”, “after 6” for “daily for 5”; assay type: functional, organism-based
Rattus norvegicus [9] = experiment: as §2, with “increase” for “reduction”, “number of platform crossing” for “escape latency”, “after 6” for “daily for 5”; assay type: functional, organism-based

Row | SMILES | IC50 (Acetylcholinesterase) [µM] | Papp at 18 h [1] [×10⁻⁶ cm/s] | Ratio IC50 [2] | IC50 (Cholinesterase) [µM] | other results
1 | COc1cc2c(cc1OC)C(=O)C(Cc1cc[n+](Cc3ccccc3)cc1Br)C2 (configuration not stated) | 0.00036 | – | – | – | –
2 | Nc1ccc2oc(N3CCN(C(=O)c4ccc(Cl)cc4)CC3)nc2c1 | 0.109 | 10.4 | 30.4 | 3.32 | –
3 | Cc1ccc(N2CCN(c3nc4cc(N)ccc4o3)CC2)cc1 | 4.18 | 10.4 | 2.1 | 9.01 | –
4 | Nc1ccc2oc(N3CCN(c4ccccn4)CC3)nc2c1 | 3.31 | 9.44 | 4.5 | 15.1 | –
5 | Nc1ccc2oc(N3CCN(CCc4ccccc4)CC3)nc2c1 | 0.393 | 13.4 | 2.4 | 0.957 | –
6 | Nc1ccc2oc(N3CCCCC3)nc2c1 | 5.68 | – | – | 24.2 | –
7 | COc1ccc(C(=O)N2CCN(c3nc4cc(N)ccc4o3)CC2)cc1 | 0.275 | 9.71 | 26.6 | 7.33 | –
8 | Nc1ccc2oc(N3CCN(C(=O)c4cccc(Br)c4)CC3)nc2c1 | 0.163 | 10.5 | 16.4 | 2.68 | –
9 | COc1ccc(Cl)cc1C(=O)N1CCN(c2nc3cc(N)ccc3o2)CC1 | 0.321 | 8.82 | 4.2 | 1.36 | –
10 | Nc1ccc2oc(N3CCN(C(=O)c4ccccc4)CC3)nc2c1 | 0.801 | – | – | 6.05 | –
11 | CN(C)c1ccc(-c2nc3cc([125I])ccc3o2)cn1 | – | – | – | – | Ki [3]: 0.0069 µM
12 | Nc1ccc2oc(N3CCN(C(=O)c4ccccc4F)CC3)nc2c1 | 0.337 | 9.55 | 24.9 | 8.39 | –
13 | Nc1ccc2oc(N3CCN(C(=O)c4cccc(F)c4)CC3)nc2c1 | 0.231 | 9.51 | 23.9 | 5.54 | –
14 | Nc1ccc2oc(N3CCN(C(=O)c4ccccc4Cl)CC3)nc2c1 | 0.559 | 10.3 | 8.6 | 4.86 | –
15 | Nc1ccc2oc(N3CCN(Cc4ccccc4)CC3)nc2c1 | 0.921 | 10.2 | 7.3 | 6.76 | –
16 | C#CCN(Cc1ccc2cccc(O)c2n1)C(C#N)CCC1CCN(Cc2ccccc2)CC1 (configuration not stated) | 0.029 | – | – | – | –
17 | COc1cc2c(cc1OC)C(=O)C(CC1CCN(Cc3ccccc3)CC1)C2 (configuration not stated) | – | – | – | – | Activity (Rattus norvegicus [4]): Active; Activity (Rattus norvegicus [5]): Active; Activity (Rattus norvegicus [6]): Active; Activity (SH-SY5Y): Active; Activity (Rattus norvegicus [7]): Active; Activity (Rattus norvegicus [8]): Active; Activity (Rattus norvegicus [9]): Active
18 | Nc1ccc2oc(N3CCN(C(=O)c4ccc5c(c4)OCO5)CC3)nc2c1 | 0.616 | 9.64 | 2.4 | 1.52 | –
